The nature of experiment [1]: DPPH radical scavenging activity. As to conditions: 120 μM DPPH in methanol, 37 °C, 20 min. As for the experimental part: DPPH radical scavenging activity was assayed following a previous report, with some modifications. […] DMSO was used instead of a sample solution in the blank group. […] The scavenging activity of the DPPH radical (%) was calculated with the following equation: (△A515blank − △A515sample) ÷ △A515blank × 100%. The IC50 of the DPPH radical scavenging activity of PIC and its analogs or that of Trolox was calculated from each linear equation by three test concentrations and their radical scavenging activities.
Background: Loss of DPPH colour is used to gauge radical scavenging.

For experiment [2], the system named is scopolamine-induced amnesiac ICR mice. Briefly: Passive avoidance test in scopolamine-induced amnesiac ICR mice. As to conditions: PIC 50 mg/kg oral once a day, donepezil 5 mg/kg oral, scopolamine 1 mg/kg i.p. It is filed as in vivo, mouse. The source says: The scopolamine-induced cognitive dysfunctions of amnesiac ICR mice were used to evaluate the effects of PIC pre-treatments on the improvement of learning and memory functions, following previous reports. The animal experimental protocols were reviewed and approved by the Institutional Animal Care and Use Committee, Taipei Medical University (No. LAC-2021-0488). After a two-week acclimation, the mice were randomly divided into four groups (N = 5 for each group). In the first stage, the mice in the PIC group were orally pre-treated with PIC (50 mg/kg) using a feeding tube, once a day from day 1 to day 7; the mice in the blank, control, and donepezil groups were treated with the same volume of distilled water from day 1 to day 7. In the second stage, on day 8 and day 9, the mice in the PIC group and the donepezil group were orally treated once with PIC (50 mg/kg) and donepezil (positive control, 5 mg/kg), respectively, using a feeding tube; the mice in the blank and the control groups were treated with the same volume of distilled water. After 30 min, each mouse was injected intraperitoneally with scopolamine (1 mg/kg, dissolved in PBS), and the mice in the blank group were each injected with an equal volume of PBS instead of the scopolamine solution. Again, 30 min after the scopolamine or PBS injection, a learning and memory evaluation was performed on each mouse with the use of a 2-day passive avoidance test. All the mice were sacrificed at the end of the animal experiments, and the brain tissues of the mice in each group were isolated, weighted, and stored at −80 °C for further use.
A 2-day passive avoidance test, which included an acquisition trial on the first day and a retention trial on the second day, was used to evaluate the learning and memory functions of the scopolamine-induced cognitive dysfunctions of amnesiac ICR mice after PIC and donepezil treatments, following previous reports. A shuttle chamber (AccuScan Instruments Inc., Columbus, OH, USA) with a light box and a dark box separated by a sliding door was used. On day 8, after acclimation around the shuttle chamber for 30 min, each scopolamine-injected or PBS-injected mouse was placed in the light box for the acquisition trial. Once the mouse entered the dark box, the step-through latency (s) was recorded, and the sliding door was closed at the same time. Immediately after, the mouse was administered an electric foot shock (0.3 mA for 3 s) via the wired metal floor and then sent back to the cage. […] The step-through latency (period of time that each mouse stayed in the light box) was recorded again. […] The protein content of the whole brain extracts from the mice was quantified using the BCA protein kit, with bovine serum albumin as the standard protein. […]

By IC50 is commonly meant the concentration needed to halve the response being measured. A lower IC50 goes with higher potency.

In the case of `Cc1c(C)c2c(c(C)c1O)CCC(C)(C(=O)O)O2` (stereo not drawn) [Trolox, 6-hydroxy-2,5,7,8-tetramethylchroman-2-carboxylic acid, reference compound], the IC50 in experiment [1] worked out at 83.1 µM.

As to `COc1cc2c(cc1OC)C(=O)C(CC1CCN(Cc3ccccc3)CC1)C2` (stereo not drawn) [donepezil, reference compound], in experiment [2], the “step-through latency, acquisition trial (first day)” value is recorded as “no significant difference among the groups”. For the same compound, the “step-through latency, retention trial (second day)” value in experiment [2] (vs control p < 0.05) was “longer staying time”.
